Test results taken from ChEMBL document CHEMBL3352103, “Investigations of amide bond variation and biaryl modification in analogues of α7 nAChR agonist SEN12333” (Eur J Med Chem, 2014).

Experiments:
[1] = target: T1, Neuronal acetylcholine receptor subunit alpha-7 (Rattus norvegicus, UniProt Q05941); assay: Displacement of [3H]EB from rat nAChR alpha7 expressed in HEK293 cell membranes by liquid scintillation counting
[2] = target: T1, Neuronal acetylcholine receptor subunit alpha-7; assay: Agonist activity at rat nAChR alpha7 expressed in GH4C1 cells by fluorescent calcium assay; type: cell-based, GH4-C1
[3] = target: Neuronal acetylcholine receptor; alpha3/beta4 (Rattus norvegicus, UniProt P04757+P12392); assay: Displacement of [3H]EB from rat nAChR alpha3beta4 expressed in HEK293 cell membranes by liquid scintillation counting
[4] = target: Neuronal acetylcholine receptor; alpha4/beta2 (Rattus norvegicus, UniProt P09483+P12390); assay: Displacement of [3H]EB from rat nAChR alpha4beta2 expressed in HEK293 cell membranes by liquid scintillation counting
Sequence of Neuronal acetylcholine receptor; alpha4/beta2 (P09483 whole entry): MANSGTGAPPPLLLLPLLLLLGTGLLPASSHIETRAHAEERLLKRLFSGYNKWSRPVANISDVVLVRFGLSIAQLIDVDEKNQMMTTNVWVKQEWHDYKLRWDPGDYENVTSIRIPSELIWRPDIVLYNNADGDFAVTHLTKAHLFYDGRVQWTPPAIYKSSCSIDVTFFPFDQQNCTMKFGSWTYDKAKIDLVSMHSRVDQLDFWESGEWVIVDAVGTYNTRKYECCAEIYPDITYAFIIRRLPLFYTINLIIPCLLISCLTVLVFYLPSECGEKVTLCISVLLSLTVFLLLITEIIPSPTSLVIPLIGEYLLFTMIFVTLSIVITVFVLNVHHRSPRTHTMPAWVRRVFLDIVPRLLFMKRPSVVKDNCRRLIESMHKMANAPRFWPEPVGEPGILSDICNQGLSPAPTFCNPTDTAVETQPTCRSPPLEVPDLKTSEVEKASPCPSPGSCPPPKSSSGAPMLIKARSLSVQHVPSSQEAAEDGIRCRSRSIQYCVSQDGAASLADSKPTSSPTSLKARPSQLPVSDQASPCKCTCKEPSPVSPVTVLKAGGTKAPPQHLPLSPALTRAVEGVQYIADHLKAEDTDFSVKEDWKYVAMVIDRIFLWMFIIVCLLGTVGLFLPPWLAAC
Sequence of Neuronal acetylcholine receptor; alpha4/beta2 (P12390 whole entry): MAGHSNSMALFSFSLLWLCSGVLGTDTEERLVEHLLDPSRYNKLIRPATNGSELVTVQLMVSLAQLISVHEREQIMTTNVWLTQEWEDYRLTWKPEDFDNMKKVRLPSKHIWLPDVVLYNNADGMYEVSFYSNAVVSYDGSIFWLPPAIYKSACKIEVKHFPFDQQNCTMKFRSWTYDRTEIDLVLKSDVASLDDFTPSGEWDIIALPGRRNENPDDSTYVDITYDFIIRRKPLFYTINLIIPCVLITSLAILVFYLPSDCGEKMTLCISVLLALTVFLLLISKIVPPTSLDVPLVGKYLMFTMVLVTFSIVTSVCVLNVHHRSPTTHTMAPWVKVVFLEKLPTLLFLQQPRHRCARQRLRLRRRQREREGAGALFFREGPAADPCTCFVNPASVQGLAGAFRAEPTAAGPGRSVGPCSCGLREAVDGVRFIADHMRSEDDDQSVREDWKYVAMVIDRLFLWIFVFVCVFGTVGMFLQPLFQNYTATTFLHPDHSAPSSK

T1 sequence (Q05941 whole entry): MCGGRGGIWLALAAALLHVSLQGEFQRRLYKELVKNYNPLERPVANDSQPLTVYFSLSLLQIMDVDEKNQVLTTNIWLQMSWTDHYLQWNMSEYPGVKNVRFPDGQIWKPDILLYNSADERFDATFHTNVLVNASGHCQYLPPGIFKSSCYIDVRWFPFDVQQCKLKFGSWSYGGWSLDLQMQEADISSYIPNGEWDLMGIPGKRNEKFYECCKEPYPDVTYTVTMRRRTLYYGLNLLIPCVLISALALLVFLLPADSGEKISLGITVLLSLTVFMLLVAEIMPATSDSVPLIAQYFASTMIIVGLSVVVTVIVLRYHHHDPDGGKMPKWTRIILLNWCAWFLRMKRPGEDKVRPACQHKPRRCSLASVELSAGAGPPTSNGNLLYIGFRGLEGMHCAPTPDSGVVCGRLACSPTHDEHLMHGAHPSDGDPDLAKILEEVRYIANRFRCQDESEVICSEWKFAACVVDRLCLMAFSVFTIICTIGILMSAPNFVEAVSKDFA
Sequence of Neuronal acetylcholine receptor; alpha3/beta4 (P04757 whole entry): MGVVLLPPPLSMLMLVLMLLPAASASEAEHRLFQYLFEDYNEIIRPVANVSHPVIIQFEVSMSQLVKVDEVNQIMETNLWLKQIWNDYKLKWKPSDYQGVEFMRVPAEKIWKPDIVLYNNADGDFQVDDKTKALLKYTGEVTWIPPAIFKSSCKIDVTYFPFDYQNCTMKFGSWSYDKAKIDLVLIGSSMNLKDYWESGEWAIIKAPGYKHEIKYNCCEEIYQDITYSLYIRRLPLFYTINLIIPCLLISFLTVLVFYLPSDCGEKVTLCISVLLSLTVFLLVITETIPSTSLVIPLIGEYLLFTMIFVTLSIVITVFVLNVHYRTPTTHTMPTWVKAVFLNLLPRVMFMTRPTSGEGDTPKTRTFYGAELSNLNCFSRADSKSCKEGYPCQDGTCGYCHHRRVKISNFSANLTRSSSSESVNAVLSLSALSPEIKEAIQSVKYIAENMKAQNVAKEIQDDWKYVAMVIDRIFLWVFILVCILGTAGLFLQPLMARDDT
Sequence of Neuronal acetylcholine receptor; alpha3/beta4 (P12392 whole entry): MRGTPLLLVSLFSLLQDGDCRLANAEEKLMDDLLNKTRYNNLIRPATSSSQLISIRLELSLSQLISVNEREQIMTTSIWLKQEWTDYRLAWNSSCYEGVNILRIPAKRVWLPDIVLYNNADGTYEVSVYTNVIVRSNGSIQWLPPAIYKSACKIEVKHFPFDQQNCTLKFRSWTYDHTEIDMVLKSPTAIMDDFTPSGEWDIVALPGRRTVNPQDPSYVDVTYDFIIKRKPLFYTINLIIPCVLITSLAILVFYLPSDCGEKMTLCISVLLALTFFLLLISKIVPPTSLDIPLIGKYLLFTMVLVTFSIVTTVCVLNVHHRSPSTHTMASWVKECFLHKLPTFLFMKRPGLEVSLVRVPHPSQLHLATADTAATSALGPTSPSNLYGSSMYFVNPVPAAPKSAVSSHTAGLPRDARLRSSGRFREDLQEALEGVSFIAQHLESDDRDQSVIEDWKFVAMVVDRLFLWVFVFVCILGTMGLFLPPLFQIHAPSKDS

Ki [1] [µM] | EC50 ([2]; gh4-c1) | Ki ([3]; read-out: Ki) [µM] | Ki ([4]; hek293) | EC50 ([2]; read-out: EC50) [nM] | Ki ([4]; read-out: Ki) [µM] | Ki ([3]; hek293) | Structure (SMILES)
165 | Not Active | > 1000 | Not Active | – | – | – | c1cncc(-c2ccc(-c3nnnn3CCCCN3CCOCC3)cc2)c1
0.67 | – | > 10 | – | 860 | > 10 | – | O=C(CCCCN1CCOCC1)Nc1ccc(-c2cccnc2)cc1
156 | Not Active | > 100 | Not Active | – | – | – | c1ccc(-c2ccc(-c3nnnn3CCCCN3CCOCC3)cc2)cc1
2.3 | – | > 10 | – | 1750 | > 10 | – | O=C(CCCCN1CCOCC1)Nc1ccc(-c2ccccc2)cc1
1.8 | – | > 10 | – | 2370 | > 10 | – | O=C(NCCCCN1CCOCC1)c1ccc(-c2ccccc2)cc1
216 | Not Active | – | Not Active | – | – | Not Active | c1cncc(-c2ccc(-n3nnnc3CCCCN3CCOCC3)cc2)c1
11 | Not Active | > 10 | – | – | > 10 | – | O=C(NCCCCN1CCOCC1)c1ccc(-c2cccnc2)cc1
236 | Not Active | > 1000 | Not Active | – | – | – | c1ccc(-c2ccc(-n3nnnc3CCCCN3CCOCC3)cc2)cc1
